This is an account of results in article PMC2011259, “Pentamethylmelamine (PMM): Phase I clinical and pharmacokinetic studies” (British Journal of Cancer, 1983).

The structures appear in SMILES notation.

For data set [1] the following is noted: oral HMM 120-300 mg m-2, n = 9 (9/11 patients), mean + SEM; ref D'Incalci et al. (1978); cited from earlier work.
Data set [2] is described as follows: Pharmacokinetic studies: plasma levels of PMM, TMM and TRIMM by gas liquid chromatography. It is filed as in vivo, man. The conditions noted are these: for Quantity of metabolite in plasma / Detection as PMM metabolite in plasma: after i.v. PMM; for Detection as PMM metabolite in plasma: patients studied; for Plasma concentration relative to parent drug: patients with normal liver function, 2 h after the end of the infusion. From the text:
Br. J. Cancer (1983), 47, 027-033 Pentamethylmelamine (PMM): Phase I clinical and pharmacokinetic studies J.R.F. Muindi*, D.R. Newellt, I.E. Smith* & K.R. Harrapt *Division of Medicine, Institute of Cancer Research and Royal Marsden Hospital, and the tDepartment of Biochemical Pharmacology, Institute of Cancer Research, Sutton, Surrey. […] PMM has been administered as an intravenous infusion to 17 patients in a Phase I clinical trial. […] In the present study the results of the Phase I clinical evaluation of PMM at the Royal Marsden Hospital are reported. In addition to the clinical assessment of patients, pharmacokinetic studies were also performed. […] (Broggini et al., 1981; Morimoto et al., 1980; Ames et al., 1979; Casper et al., 1981; Idhe et al., 1981; Benvenuto et al., 1981; Rutty et al., 1982). […] The mechanism of action of N-methylolmelamines is, however, still uncertain. To ascertain the rate and extent of PMM metabolism in man, plasma levels of the parent drug and the first two products of oxidative N- demethylation i.e. N2,N2,N4,N6-tetramethyl- melamine (TMM) and N2,N4,N6-trimethylmelamine (TRIMM) were measured (Figure 2). […] Materials and methods Patient selection The patients entered in the PMM Phase I clinical study were all under the care of the Royal Marsden Hospital. […] Additional criteria required for eligibility to enter into the study included: WBC and platelet count > 3000 uM I-' and > 100,000 pM 11 respectively; blood urea and serum creatinine < 8 mM ,M I1- and < 106 pM 1 respectively. None of the patients had received cancer chemotherapy or radiotherapy during the 3-week period preceding their entry into the study. […] The treatment protocol was approved by the Ethical Committee of the Royal Marsden Hospital and informed consent was obtained from all patients prior to entry into the study. […] It was supplied by Prof. W.C.J. Ross of the Chester Beatty Research Institute, London, as a white crystalline powder. PMM (2mg ml-') was infused intravenously as a 2% ethanol 5% dextrose solution after micropore (0.22 pm) filtration. All formulated PMM infusions were used within 24h of preparation, as a sterility precaution. PMM was initially given at a dose of […] and the dose escalated to 1300mgm-2 according to a modified Fibonacci scheme (Table II). At higher PMM doses, requiring large infusion volumes, the infusion time was extended from 1 to 4 h. No dose escalation was TRIMM CH3 Nc"N H 11 H Ii N N H CH3 HCHO 1. carried out in the same patient.

The mark [3] stands for this setting: patient eight, PMM dose 300 mg m-2 i.v., hepatic function abnormal.
[4] abbreviates: patient five, PMM dose 200 mg m-2 i.v., hepatic function abnormal.
Where [5] appears, read: patient four, PMM dose 200 mg m-2 i.v., hepatic function normal.
Where [6] appears, read: patient one, PMM dose 300 mg m-2 i.v., hepatic function normal.
The mark [7] stands for this setting: patient seven, PMM dose 500 mg m-2 i.v., hepatic function normal.
The mark [8] stands for this setting: patient six, PMM dose 100 mg m-2 i.v., hepatic function normal.
[9] abbreviates: patient three, PMM dose 500 mg m-2 i.v., hepatic function abnormal.
Setting [10] is: patient two, PMM dose 100 mg m-2 i.v., hepatic function normal.

Take `CN(C)c1nc(N(C)C)nc(N(C)C)n1` [HMM, hexamethylmelamine]: the “HMM AUC 0-12h” value in data set [1] is 763 +163 iMxmin.
`CN(C)c1nc(N)nc(N(C)C)n1` [N2,N2,N4,N4-tetramethylmelamine]: in data set [2], the “Quantity of metabolite in plasma” value is reported as “minor quantities”.
`CNc1nc(N)nc(N(C)C)n1` [N2,N2,N4-trimethylmelamine]: in data set [2], the “Quantity of metabolite in plasma” value is “minor quantities”.
Turning to `CNc1nc(N)nc(NC)n1` [N2,N4-dimethylmelamine], the “Detection as PMM metabolite in plasma” value in data set [2] is on record as “observed”.
With `CNc1nc(NC)nc(N(C)C)n1` [TMM, N2,N2,N4,N6-tetramethylmelamine], the “Detection as PMM metabolite in plasma” value in data set [2] was “detected”. In addition, the “Area under the plasma conc. v. time curve” value (“Area” below) was 2121 IM x min in data set [2] (setting [3]); 1804 IM x min in data set [2] (setting [4]); 397 IM x min in data set [2] (setting [5]); 3697 IM x min in data set [2] (setting [6]); 2693 IM x min in data set [2] (setting [7]); 204 IM x min in data set [2] (setting [8]). The “Area” value in data set [2] (setting [9]) was 6206 IM x min; in data set [2] (setting [10]), 151 IM x min. Further, in data set [2], the “Plasma concentration relative to parent drug” value is listed as “greater concentrations than the parent drug”.
As to `CNc1nc(NC)nc(NC)n1` [TRIMM, N2,N4,N6-trimethylmelamine], the “Detection as PMM metabolite in plasma” value in data set [2] is recorded as “detected”. Further, the “Area” value was 627 IM x min in data set [2] (setting [3]); 1438 IM x min in data set [2] (setting [4]); 1070 IM x min in data set [2] (setting [5]); 4091 IM x min in data set [2] (setting [6]); 3710 IM x min in data set [2] (setting [7]); 573 IM x min in data set [2] (setting [8]). For the same molecule, the “Area” value in data set [2] (setting [9]) is reported as 7995 IM x min; in data set [2] (setting [10]) it was 189 IM x min. Also, the “Plasma concentration relative to parent drug” value in data set [2] was “greater concentrations than the parent drug”.
